Laboratory results: patent US20060047261A1, “Intra-arterial catheter for drug delivery” (priority 2004, published 2006)

Key:
[1] = intracarotid; cited from earlier work
New Zealand rabbits = assay: Intracarotid propofol (0.33% and 1%) before, during and after flow arrest: duration of electrocerebral silence; format: in vivo, rabbit
Description: The study was conducted on eight New Zealand rabbits that were subjected to six drug challenges. […] The flow arrest was produced by intravenous injection of esmolol (10 mg) and adenosine (30 mg).

[2] = co-administration of intracarotid verapamil; n=14, P=0.04

CCCC(C)C1(CC)C(=O)NC(=S)NC1=O (stereo not drawn) [pentothal]
loading dose of 1% pentothal [1]: about 0.3±0.1 ml

CC(C)c1cccc(C(C)C)c1O [propofol]
time to complete recovery of EEG activity and systemic changes (blood pressure) (rabbits; after last intracarotid injection): ≤ 10 min | EEG silence (rabbits; intracarotid, volume of 0.4 ml with 0.5% propofol): produced EEG silence in all cases | increase of the duration of EEG silence by changing concentration (New Zealand rabbits; 0.33% vs 1% (1 or 3 mg) intracarotid, P=0.02, NS on post-hoc testing, n=8): 2-4 folds | increase of the duration of EEG silence by flow arrest (New Zealand rabbits; intracarotid 1 or 3 mg during esmolol/adenosine flow arrest, n=8, P<0.0001): 15-20 folds

COc1ccc(CCN(C)CCCC(C#N)(c2ccc(OC)c(OC)c2)C(C)C)cc1OC (stereo not drawn) [verapamil]
doses of intracarotid propofol required to produce 10 minutes of EEG silence [2]: significantly increased
